Data reported in patent publication US12344631B2, “C17 polar-substituted heteroaromatic synthetic triterpenoids and methods of use thereof” (REATA PHARMACEUTICALS, INC., priority 2019, dated 2025).

Assays:
CYP3A4 = CYP3A4 (Homo sapiens, UniProt P08684); assay: CYP3A4 (midazolam) inhibition in human liver microsomes; conditions: for CYP3A4 inhibition compared with historical data for RTA 402 and RTA 408: comparable conditions (FIG. 1); for inhibition at 10 min, 1 μM: human, human liver microsomes, probe midazolam (5 μM); for CYP3A4 inhibition lower than the corresponding unsubstituted compound: vs CC2, CC1 or CC3, 1 μM
CYP3A4, sequence (P08684 whole entry): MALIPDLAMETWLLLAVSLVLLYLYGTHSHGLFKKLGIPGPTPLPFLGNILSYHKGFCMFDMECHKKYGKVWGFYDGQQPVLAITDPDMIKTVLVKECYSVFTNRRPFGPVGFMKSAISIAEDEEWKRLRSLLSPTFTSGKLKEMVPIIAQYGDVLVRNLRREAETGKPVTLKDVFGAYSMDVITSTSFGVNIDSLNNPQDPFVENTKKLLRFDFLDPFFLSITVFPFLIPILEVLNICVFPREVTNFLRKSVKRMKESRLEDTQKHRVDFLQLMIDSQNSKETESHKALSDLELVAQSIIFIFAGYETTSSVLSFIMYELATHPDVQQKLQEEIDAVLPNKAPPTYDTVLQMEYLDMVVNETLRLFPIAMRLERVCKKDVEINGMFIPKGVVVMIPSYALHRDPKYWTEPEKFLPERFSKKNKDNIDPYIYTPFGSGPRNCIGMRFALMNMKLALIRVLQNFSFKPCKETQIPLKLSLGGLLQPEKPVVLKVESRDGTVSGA

RAW 264.7 cells = assay: Nitric oxide suppression assay (IFNγ-induced NO production); format: cell-based, mouse; conditions: for IC50: Mus musculus, RAW264.7, RAW 264.7 cells, 2 h pretreatment, 20 ng/mL interferon gamma 24 h, nitrite by Griess, read-out: NO IC50 (nM) (Mean ± SD); for NO IC50 Relative to RTA 402 (fold) (Mean ± SD): average of ratios from replicate experiments, benchmark RTA 402
Summary of the method: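 Mouse RAW 264.7 macrophages in RPMI 1640 with 0.5% FBS were pretreated with compounds for 2 h at 37° C (0.1% DMSO final), then stimulated with 20 ng/mL IFNγ for 24 h. Nitrite in the supernatant was read at 525 nm against standards and normalized to DMSO/IFNγ wells. IC50 values were fitted with dependence on WST-1 viability.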

[1] = tested on: AREc32 reporter cell line (antioxidant response element of rat Gsta2, Nrf2 target gene); assay: AREc32 luciferase reporter activation; format: cell-based, human; conditions: for AREc32 EC2X Relative to RTA 402 (fold) (Mean ± SD): average of ratios from replicate experiments, benchmark RTA 402; for AREc32 Relative to CC in Same Experiment (Mean ± SD): average of ratios from experiments with direct comparisons; for EC (2-fold): human, Arec32, 19 h, concentration increasing luminescence signal 2-fold above vehicle, nineteen hours, read-out: AREc32 EC2X (nM) (Mean ± SD)
Summary of the method: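 MCF-7-derived cells carry luciferase driven by eight copies of the rat Gsta2 ARE. EC2X was extrapolated from a nonlinear fit of fold increase over vehicle.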

[2] = tested on: AML-12 hepatocyte cell line; assay: Glutathione assay (total glutathione, GSH-Glo); format: cell-based, mouse; conditions: for EC50: Mus musculus, AML12, AML-12 cells, 24 hours, total glutathione, read-out: GSH EC50 (nM) (Mean ± SD); for GSH EC50 Relative to RTA 402 (fold) (Mean ± SD): benchmark RTA 402
Summary of the method: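 Mouse AML-12 hepatocytes were treated with compound (0.03 nM to 1000 nM, 0.1% DMSO) for 24 hours at 37° C., and total glutathione was measured by GSH-Glo luminescence against a glutathione standard curve. EC50 values came from nonlinear regression, with basal glutathione set to 0% and the maximal compound-induced level set to 100%.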

Row | Compound | CYP3A4 inhibition compared with historical data for RTA 402 and RTA 408 (CYP3A4) | inhibition at 10 min, 1 μM (CYP3A4) | CYP3A4 inhibition lower than the corresponding unsubstituted compound (CYP3A4) | IC50 (RAW 264.7 cells) | NO IC50 Relative to RTA 402 (fold) (Mean ± SD) (RAW 264.7 cells) | AREc32 EC2X Relative to RTA 402 (fold) (Mean ± SD) [1] | AREc32 Relative to CC in Same Experiment (Mean ± SD) ([1]; comparison compound CC1) | EC (2-fold) [1] | EC50 [2] | GSH EC50 Relative to RTA 402 (fold) (Mean ± SD) [2] | AREc32 Relative to CC in Same Experiment (Mean ± SD) ([1]; comparison compound CC2) | AREc32 Relative to CC in Same Experiment (Mean ± SD) ([1]; comparison compound CC3)
1 | CC1(C)CC[C@]2(c3nnc(CF)o3)CC[C@]3(C)[C@H](C(=O)C=C4[C@@]5(C)C=C(C#N)C(=O)C(C)(C)[C@@H]5CC[C@]43C)[C@@H]2C1 [Compound T11] | reduced CYP3A4 inhibition | 17.7% | 15% | 0.98 nM | 0.37 ± 0.07 fold | 0.25 ± 0.08 fold | 0.27 ± 0.03 | 3.23 ± 0.77 nM | 0.54 ± 0.29 nM | 0.32 ± 0.13 fold | – | –
2 | CC1(C)CC[C@]2(c3noc(CN)n3)CC[C@]3(C)[C@H](C(=O)C=C4[C@@]5(C)C=C(C#N)C(=O)C(C)(C)[C@@H]5CC[C@]43C)[C@@H]2C1 [Compound T2] | reduced CYP3A4 inhibition | 21.4% | 53% | 1.15 nM | 0.38 ± 0.09 fold | 0.28 ± 0.04 fold | – | 3.67 ± 0.28 nM | 1.21 ± 1.15 nM | 0.47 ± 0.38 fold | 0.43 ± 0.00 | –
3 | C[C@@H]1C(=O)C(C#N)=C[C@]2(C)C3=CC(=O)[C@@H]4[C@@H]5CC(C)(C)CC[C@]5(c5nc(CF)no5)CC[C@@]4(C)[C@]3(C)CC[C@@H]12 [Compound T34] | reduced CYP3A4 inhibition | 29.4% | 22% | 0.93 nM | 0.28 ± 0.06 fold | 0.36 ± 0.05 fold | – | 4.5 ± 0.66 nM | 0.35 ± 0.06 nM | 0.18 ± 0.02 fold | – | 0.76 ± 0.14
4 | Cc1nnc([C@]23CCC(C)(C)C[C@H]2[C@H]2C(=O)C=C4[C@@]5(C)C=C(C#N)C(=O)C(C)(C)[C@@H]5CC[C@@]4(C)[C@]2(C)CC3)o1 [CC1, reference compound] | – | 20.7% | – | 2.05 nM | 0.78 ± 0.10 fold | 0.79 ± 0.24 fold | 1.00 | 10.6 ± 2.73 nM | 1.09 ± 0.13 nM | 0.70 ± 0.12 fold | – | –
5 | Cc1noc([C@]23CCC(C)(C)C[C@H]2[C@H]2C(=O)C=C4[C@@]5(C)C=C(C#N)C(=O)C(C)(C)[C@@H]5CC[C@@]4(C)[C@]2(C)CC3)n1 [CC2, reference compound] | – | 45.8% | – | 1.98 nM | 0.70 ± 0.18 fold | 0.74 ± 0.16 fold | – | 8.59 ± 1.88 nM | 2 ± 1.24 nM | 0.80 ± 0.16 fold | 1.00 | –
6 | Cc1noc([C@]23CCC(C)(C)C[C@H]2[C@H]2C(=O)C=C4[C@@]5(C)C=C(C#N)C(=O)[C@@H](C)[C@@H]5CC[C@@]4(C)[C@]2(C)CC3)n1 [CC3, reference compound] | – | 37.7% | – | 1.34 nM | 0.40 ± 0.06 fold | 0.66 ± 0.21 fold | – | 7.11 ± 1.15 nM | 1.16 ± 0.53 nM | 0.43 ± 0.14 fold | – | 1.00
